From US20080019910A1, “Cancer Treatment and Cancer Treatment Efficacy Prediction by Blocking and Detecting Protease Inhibitors” (priority 2004, published 2008) come the findings set out here.

The test system of data set [1] is wild-type and PAI-1 gene-deficient fibrosarcoma cell lines. Nature of the data set: Clonogenic assay (colony formation in soft agar). It counts as cell-based, mouse. To be noted: PAI-1−/− versus wild type fibrosarcoma cells. The method, then: The cell lines described in Example 1 were used. The cells were in passage 35 (wild-type cells) and passage 50 (PAI-1 gene deficient cells). […] Gentle aspiration was repeated using a 1 ml syringe to achieve single cell suspension. 1 ml was then plated in triplicate in Petri dishes upon a feeder layer of SRBC (see separate paragraph for preparation of these). When the agar had solidified, 1 ml of media was added on top. 18-24 dishes were placed on plastic trays and two Petri dishes containing water were placed on each tray for conditioning. […] Colonies (>64 cells) were counted after 3 weeks. The experimental drugs were dissolved in media×300 the final concentration. […] Viable cells were counted after 8 minutes.

Data set [2] concerns PAI-1−/− fibrosarcoma cells. Nature of the data set: LDH release cytotoxicity assay. To be noted: for LDH release (% of total activity): PAI-1−/− cells; for sensitivity to treatment (LDH release): PAI-1−/− compared with PAI-1+/+ fibrosarcoma cells; for cell lysis (LDH release): both PAI-1−/− and PAI-1+/+ fibrosarcoma cells. Format: cell-based, mouse. The source says: (§1) The damage of the plasma membrane is classically evaluated as a parameter for cell death. In vivo the plasma membrane of apoptotic cells persists until the cell is phagocytised. In contrast, necrotic cell death results in leakage of cytoplasm to the extracellular environment, which leads to an inflammatory response. Under cell culture conditions, cells that have been subjected to an apoptotic stimulus will initially die by apoptosis, but later shift into secondary necrosis due to lack of phagocytosis in the cell culture. Cytotoxicity or cell lysis can be measured by determining the release of lactate dehydrogenase (LDH) in the culture supernatant. For this purpose the “Cytotoxicity detection kit” (Roche, Mannheim, Germany) was employed.
(§2) PAI-1−/− and PAI-1+/+ fibrosarcoma cells were seeded in a 96-well microtiter plate (2500 cells/well). Fifty μl of culture supernatant (total: 200 μl) is transferred to a new 96-well microtiter plate and mixed with 50 μl of a substrate mix. The remaining supernatant is discarded, and the remaining intact cells are lysed by addition of 200 μl of lysis buffer (1% Triton-X100 in CM). After 30 min lysis at 37° C., 50 μl of lysate is transferred to a new 96-well microtiter plate and mixed with 50 μl of a substrate mix. The cell culture supernatant and lysate are incubated for 10 min with the substrate mix protected from light. The absorbance is measured on a spectrophotometer at λ1=490 nm and reference λ2=650 nm. The amount of released LDH in % is related to total amount: [formula] Results

The subject of data set [3] is PAI-1+/+ fibrosarcoma cells. Nature of the data set: LDH release cytotoxicity assay. It counts as cell-based, mouse. To be noted: PAI-1+/+ cells.
From the text: as §1, §2

Data set [4] relates to PAI-1 transfected PAI-1−/− fibrosarcoma cells. Nature of the data set: LDH release after reintroduction of PAI-1 expression. Format: cell-based, mouse. The conditions noted are these: PAI-1−/−(PAI-1 pool) versus PAI-1−/− (vector pool) and parental PAI-1−/− cells. As for the experimental part: Transfection of PAI-1−/− fibrosarcoma cells was performed by the use of Lipofectamine 2000 ([…]) according to the manufactures instructions employing 2×10^5 cells. After 2 days the cells were seed in tissue culture flasks and 100 μg/ml Hygromycin was added to the medium to select for transfected cells in pooled population. Experiments were performed 2 months after transfection. The sensitivity to apoptosis was measured by treating the cells with etoposide and TNF-α and detecting the LDH release as described in Example 4.

A short description of data set [5]: In vivo toxicity (weight loss, white blood cells) in PAI-1 +/+ and PAI-1 −/− mice.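 Also: nude META/Bom nu/nu mice of both sexes, 24-30 g, blood taken for hematology on day 3 (anticipated WBC nadir) and on day 5 after dosing.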 The conditions noted are these: 75 mg/kg i.p.
Method: We investigated the sensitivity of the intact mouse by a “comparison” of sensitivity between the PAI-I +/+ and −/− mice in terms of weight loss.
Furthermore blood was sampled on the day of expected nadir (day 3 (WBC)) and day 5, with hematological evaluation.
Mice: META™/Bom nu/nu; PAI-1+/+ and PAI-1 −/−. Size (gram): 24-30 grams females and males.
The drug was administered i.p., freshly made, relative to body weight, in a NaCl solvent (Batch 3036111) according to the following table:
Data set [6] relates to TIMP-1−/− and TIMP-1+/+ fibrosarcoma cells. Nature of the data set: LDH release cytotoxicity assay. Format: cell-based, mouse.
From the text: as §1
TIMP-1−/− and TIMP-1+/+ fibrosarcoma cells (see above method for establishment of fibrosarcoma cells from mice) were seeded in a 96-well microtiter plate (2500 cells/well). After 24 hours, cells are treated with etoposide for 24 h. Fifty μl of culture supernatant (total: 200 μl) is transferred to a new 96-well microtiter plate and mixed with 50 μl of a substrate mix. The remaining supernatant is discarded, and the remaining intact cells are lysed by addition of 200 μl of lysis buffer (1% Triton-X100 in CM). […] The absorbance is measured on a spectrophotometer at λ1=490 nm and reference λ2=650 nm. […]

Data set [7] has as its system TIMP-1 +/+ and TIMP-1 −/− fibrosarcoma cell lines. The data set is described as follows: DNA-histone complex assay. Format: cell-based, mouse.

Regarding `CC[C@]1(O)C[C@H]2CN(CCc3c([nH]c4ccccc34)[C@@](C(=O)OC)(c3cc4c(cc3OC)N(C=O)[C@H]3[C@@](O)(C(=O)OC)[C@H](OC(C)=O)[C@]5(CC)C=CCN6CC[C@]43[C@@H]65)C2)C1` [vincristine], the “sensitivity in clonogenic assay (colony formation)” value (“sensitivity in clonogenic assay” for short) in data set [1] is reported as “significantly more sensitive”.

As for `Nc1ccn([C@@H]2O[C@H](CO)[C@@H](O)[C@@H]2O)c(=O)n1` [ARA-C], in data set [1], the “sensitivity in clonogenic assay” value is given as “significantly more sensitive”.

Turning to TNF-α, in data set [2] (2.5 ng/ml TNF-α, 24 h), the “LDH release (% of total activity)” value is on record as 46.3%. In addition, in data set [2], the “sensitivity to treatment (LDH release)” value is given as “significantly more sensitive” and the “cell lysis (LDH release)” value is recorded as “dose-dependent cell lysis”. The “LDH release (% of total activity)” value in data set [3] (2.5 ng/ml TNF-α, 24 h) worked out at 7.3%. Further, in data set [4], the “resistance to induced cell death (LDH release)” value is “significantly more resistant”.

With `COc1cccc2c1C(=O)c1c(O)c3c(c(O)c1C2=O)C[C@@](O)(C(=O)CO)C[C@@H]3O[C@H]1C[C@H](N)[C@H](O)[C@H](C)O1` [doxorubicin], the “sensitivity in clonogenic assay” value in data set [1] was “significantly more sensitive”.

Take `COc1cc([C@@H]2c3cc4c(cc3[C@@H](O[C@@H]3O[C@@H]5CO[C@@H](C)O[C@H]5[C@H](O)[C@H]3O)[C@H]3COC(=O)[C@H]23)OCO4)cc(OC)c1O` [etoposide]: the “sensitivity in clonogenic assay” value in data set [1] is listed as “significantly more sensitive”. The “LDH release (% of total activity)” value turned out to be 41.10% in data set [2] (1.25 μM etoposide, 48 h) and 1% in data set [3] (1.25 μM etoposide, 48 h). The “sensitivity to treatment (LDH release)” value in data set [2] and in data set [6] (TIMP-1−/− compared with TIMP-1+/+ fibrosarcoma cells) was “significantly more sensitive” throughout. The “cell lysis (LDH release)” value in data set [2] is “dose-dependent cell lysis”; in data set [6] (both TIMP-1−/− and TIMP-1+/+ fibrosarcoma cells), “dose-dependent cell lysis”. Besides, the “day of WBC nadir” value in data set [5] (both genotypes) turned out to be 3 days. In addition, the “effect on white blood cell count (WBC)” value in data set [5] (both genotypes, p=0.0003) is given as “suppresses white blood cell count”. Besides, the “difference in WBC response between PAI-1 +/+ and PAI-1 −/− mice” value in data set [5] (p=0.99) was “no difference”. Moreover, the “weight loss in treated mice” value in data set [5] (treated versus untreated, p<0.0001) is on record as “significant loss of weight”. For the same compound, the “Drug induced effect on weight loss (weight, initial = 100)” value (from here on “Drug induced effect on weight loss”) in data set [5] (PAI-1 +/+ female mice, 22.0 hours) is 101.2; in data set [5] (PAI-1 +/+ female mice, 44.5 hours) it was 98.3; in data set [5] (PAI-1 +/+ female mice, 67.0 hours) it was 98.2; in data set [5] (PAI-1 +/+ female mice, 93.5 hours), 98.4; in data set [5] (PAI-1 +/+ female mice, 120.0 hours) it was 97.7; in data set [5] (PAI-1 +/+ male mice, 22.0 hours), 97.6. The “Drug induced effect on weight loss” value worked out at 94.9 in data set [5] (PAI-1 +/+ male mice, 44.5 hours); 92.9 in data set [5] (PAI-1 +/+ male mice, 67.0 hours); 91.0 in data set [5] (PAI-1 +/+ male mice, 93.5 hours); 91.8 in data set [5] (PAI-1 +/+ male mice, 120.0 hours); 99.9 in data set [5] (PAI-1 −/− female mice, 22.0 hours); 99.1 in data set [5] (PAI-1 −/− female mice, 44.5 hours). Also, the “Drug induced effect on weight loss” value in data set [5] (PAI-1 −/− female mice, 67.0 hours) turned out to be 99.6; in data set [5] (PAI-1 −/− female mice, 93.5 hours) it was 98.7; in data set [5] (PAI-1 −/− female mice, 120.0 hours), 100.3; in data set [5] (PAI-1 −/− male mice, 22.0 hours), 99.1; in data set [5] (PAI-1 −/− male mice, 44.5 hours) it was 96.3; in data set [5] (PAI-1 −/− male mice, 67.0 hours) it was 96.4. The “Drug induced effect on weight loss” value in data set [5] (PAI-1 −/− male mice, 93.5 hours) came out at 95.6; in data set [5] (PAI-1 −/− male mice, 120.0 hours), 97.0. In addition, the “resistance to induced cell death (LDH release)” value in data set [4] is on record as “significantly more resistant”. For the same compound, the apoptosis induction entry in data set [7] is reported as “induced apoptosis”.

As for `N.N.[Cl][Pt][Cl]` [cisplatin], the “sensitivity in clonogenic assay” value in data set [1] is on record as “significantly more sensitive”.
